Measurements published in US4765972A (priority 1986, dated 1988).

How the values were obtained:
[1] = system: 54.3 kDa polypeptide (tubulin subunit); test: Photolabelling of calf brain homogenate with ^3 H-NABV, 54.3 kDa polypeptide; assay type: binding
Description: (§1) Tissue homogenate high speed supernatant and pellet fractions were obtained by homogenizing 1 gram of calf brain in 10 ml volumes of 0.05 M potassium phosphate buffer, pH 7.4, for one minute with a Model PCU Polytron homogenizer with a PT-10-ST probe operated at 50% maximum power (Brinkmann Instruments, Westbury, NY). The brain tissue homogenate was collected after filtering through one layer of cheesecloth. Brain tissue high speed supernatant fractions were prepared by centrifuging the homogenates at 100,000×g for 60 minutes at 4° C. The resulting pellet was washed twice with five times its original volume of buffer, and recentrifuged as described. […] and supernatant fractions were stored in small aliquots in liquid nitrogen and thawed only once.
(§2) The standard photolabelling mixture used contained 50 nM ^3 H-NABV (50.6 Ci/mmol), 4% dimethylsulfoxide, […] potassium phosphate buffer, pH 7.0, and 2 mg/ml of tissue homogenate or high speed pellet or supernatant fractions in a final volume of 0.05 ml in polyvinylchloride V-microtiter wells (Dynatech Labs, Inc., Alexandria, VA) in a 25° C. water bath. Photolabelling mixtures were incubated for 15 minutes at 25° C. before photolysis. Photoactivation was performed for 10-20 minutes with a UV light equipped with two 15 W self-filtering 302 nm lamps (Model xx-15, Ultra-Violet Products, Inc., San Gabriel, CA), placed 3.4 cm above the photolabelling mixture. […] Photoactivated samples were immediately processed for SDS-PAGE or frozen at -70° C.
(§3) Equal volumes of SDS sample buffer were added to photolabelled mixtures in microliter wells. The mixtures were transferred to 0.5 ml centrifuge tubes. After heating for five minutes at 100° C. on a heating block, the mixtures were cooled on ice and sonicated for five seconds, cooled, and 0.08 ml aliquots of the mixtures were applied to separate wells of a 1.5 mm thick polyacrylamide slab gel.
(§4) Electrophoresis was performed as described by Laemmli in Nature (Lond.) 227, 680-685 (1970) with a linear polyacrylamide gradient from 9.7% acrylamide, 0.26% bis-acrylamide and 10% glycerol, to 16.6% acrylamide, 0.44% bis-acrylamide, and 17% glycerol using a Bio-Rad slab gel apparatus (Model 220, Richmond, CA) at 8 mA/gel for sixteen hours. Following fixation and staining of the gel, in 0.25% Coomassie brilliant blue, 45% methanol and 10% acetic acid, the lanes of stained polypeptide corresponding to each sample slot were cut and sliced into 1.0 mm slices. Each slice was incubated with 0.3 ml 30% H2 O2 in a closed scintillation vial at 100° C. for one hour to solubilize the gel slice, with radioactivity subsequently quantitated. The molecular weights of radioactive macromolecules were estimated by their mobilities relative to standard proteins of known molecular weights. (Bio-Rad, Richmone, CA). The radioactivity of photolabelled components was quantitated in triplicate by adding the dpm in each 1 mm gel slice through the radioactive peak.
(§5) The specific photolabelling was obtained by subtracting the nonspecific linear curve from the mixed biphasic profile.

21.5 kDa polypeptide = test: Photolabelling of calf brain homogenate with ^3 H-NABV, 21.5 kDa polypeptide; assay type: binding
Description: as §1, §2, §3, §4, §5

[2] = system: 150-180 kDa surface membrane glycoprotein (gp150-180); test: Photoaffinity labelling of cell particulate fractions / plasma membranes with ^3 H-NABV, competition by vinblastine; assay type: binding, Chinese hamster
Description: Cell lines were cultured as described by Peterson et al., Cancer Res. 43, 222-228 (1983) and by Meyers et al., J. Cell. Biol. 100, 588-597 (1985). Vincristine-resistant (DC-3F/VCRd-5L, 2750-fold resistant) and actinomycin D-resistant (DC=3F/ADX, 2450-fold resistant) variants were selected from Chinese hamster lung (DC-3F) cells as described in the above-cited articles. The drug-sensitive revertant (DC-3F/ADX-U, 30-fold resistant to actinomycin D) was obtained from DC-3F/ADX cells grown in the absence of drugs. The resistant cells expressed a typical multidrug-resistant phenotype as typified by cross-resistance to a number of unrelated natural product compounds. Whole cell particulate fractions were prepared by the sonication of drug-sensitive or drug-resistant cells in 50 mM potassium phosphate buffer (pH 7.4), followed by centrifugation at 100,000×g for one hour. […] Protein concentrations were determined by the procedure of Lowry et al., J. Biol. Chem., 193, 265-275 (1951).
Photolabelling of membrane samples (50 micrograms protein) was performed in 40 nM potassium phosphate buffer (pH 7.0) containing 4% Me2 SO and 50 nM of either ^3 H-NABV (0.1 microCi) or ^125 I-NASV (0.2 microCi) in a final volume of 0.050 ml. […] The quantitation of radiolabelling was accomplished by cutting appropriate areas from the gel and counting the pieces in a gamma counter. […]

[3] = system: 150-180 kDa surface membrane glycoprotein (gp150-180); test: Photoaffinity labelling of purified plasma membranes with ^125 I-NASV; assay type: binding, Chinese hamster; details: for increase of radiolabelling of the 150-180 kDa component versus drug-sensitive parental cells: plasma membranes
Description: Cell lines were cultured as described by Peterson et al., Cancer Res. 43, 222-228 (1983) and by Meyers et al., J. Cell. Biol. 100, 588-597 (1985). Vincristine-resistant (DC-3F/VCRd-5L, 2750-fold resistant) and actinomycin D-resistant (DC=3F/ADX, 2450-fold resistant) variants were selected from Chinese hamster lung (DC-3F) cells as described in the above-cited articles. The drug-sensitive revertant (DC-3F/ADX-U, 30-fold resistant to actinomycin D) was obtained from DC-3F/ADX cells grown in the absence of drugs. The resistant cells expressed a typical multidrug-resistant phenotype as typified by cross-resistance to a number of unrelated natural product compounds. Whole cell particulate fractions were prepared by the sonication of drug-sensitive or drug-resistant cells in 50 mM potassium phosphate buffer (pH 7.4), followed by centrifugation at 100,000×g for one hour. The particulate pellet was washed by resuspending in the same buffer, and the whole cell particulate fraction was obtained by a second centrifugation. Purified plasma membranes were prepared by sucrose density gradient centrifugation as described in Peterson et al in J. Supramolecular Structure 9, 289-298 (1978). Protein concentrations were determined by the procedure of Lowry et al., J. Biol. Chem., 193, 265-275 (1951).
Photolabelling of membrane samples (50 micrograms protein) was performed in 40 nM potassium phosphate buffer (pH 7.0) containing 4% Me2 SO and 50 nM of either ^3 H-NABV (0.1 microCi) or ^125 I-NASV (0.2 microCi) in a final volume of 0.050 ml. […] SDS-PAGE of 5-15% gradient gels containing 4.5 M urea, fluorography, and autoradiography were performed as described by Felsted et al. in Blood 66, 606-613 (1985). The quantitation of radiolabelling was accomplished by cutting appropriate areas from the gel and counting the pieces in a gamma counter.
A plasma membrane localization for the 150-180 kDa component was established by photoaffinity labelling sucrose density gradient purified plasma membranes from drug-sensitive and drug-resistant cells with ^3 H-NABV. […] These membranes, as well as membranes from another multidrug-resistant variant (DC-3F/ADX) originally selected for resistance to actinomycin D and from a revertant (DC-3F/ADX-U) obtained from the DC-3F/ADX variant were also photoaffinity labelled with ^125 I-NASV. […] In contrast, radiolabelling of the 150-180 kDa component in the DC-3F/ADX-U revertant cells was increased by only about 15-fold. […] In other studies, a number of drug-sensitive cell lines have been shown by immunoblottings to have barely detectable levels of analogous 150-180 kDa surface membrane glycoproteins compared to the corresponding multidrug-resistant variants. […]

[4] = system: 150-180 kDa surface membrane glycoprotein (gp150-180); test: Immunoprecipitation of ^125 I-NASV photolabelled, detergent solubilized membranes with antibody specific for gp150-180; assay type: binding, Chinese hamster; details: DC-3F/VCRd-5L membranes, vinblastine
Description: Immunoprecipitations were performed by extracting membranes (20 micrograms protein) for fifteen minutes at 4° C. with 100 microliters of 50 mM Tris-HCl buffer (pH 7.0) containing 150 mM NaCl, 1% Triton X-100, 1% sodium deoxycholate, 0.1% SDS, 1 mM ethylenediamine tetraacetic acid, 1 mM phenylmethylsulfonylfluoride, and 10 mg/ml Trayslol (Boehringer Mannheim, Indianapolis, IN). The mixtures were then incubated for one hour at 5° C. with 10 microliters rabbit polyclonal antibody specific for multidrug-resistant 150-180 kDa surface membrane glycoprotein (gp150-180).Immune complexe were obtained by incubating the mixture with Protein A-Sepharose (Pharmacia, Piscataway, NJ) for one hour at 5° C. and recovering the beads after washing four times. […]
Photolabelling of membrane samples (50 micrograms protein) was performed in 40 nM potassium phosphate buffer (pH 7.0) containing 4% Me2 SO and 50 nM of either ^3 H-NABV (0.1 microCi) or ^125 I-NASV (0.2 microCi) in a final volume of 0.050 ml. […] The quantitation of radiolabelling was accomplished by cutting appropriate areas from the gel and counting the pieces in a gamma counter.
The radiolabelled 150-180 kDa polypeptide was immunoprecipitated only from membrane extracts of drug-resistant cells. No radioactivity was precipitated when nonimmune serum was used in place of the specific antibody. […]

[5] = system: P388 murine leukemic cells; test: Growth inhibition of exponentially growing P388 cells; assay type: cell-based; details: Mus musculus; 72 hours exposure; exponentially growing P388 cells; read-out: IC50
Excerpt: Thus, NABV is ideal for probing intracellular Vinca alkaloid interactions because it retains the known biochemical and pharmacological properties of this class of drugs.

microtubule = test: In vitro microtubule assembly; assay type: biochemical; details: both drugs at similar concentrations
tubulin [6] = test: Tubulin aggregation; assay type: biochemical; details: both drugs at similar concentrations
tubulin [7] = test: Tubulin-dependent GTP hydrolysis; assay type: biochemical; details: both drugs at similar concentrations
[8] = In-vitro NABV metabolism in calf brain homogenates; assay type: in vitro ADME; details: dark, 30-60 minutes at 0°, 25°, and 37° C.
Description: In-vitro NABV Metabolism Calf brain homogenates (100 micrograms protein) were incubated with 3H-NABV under standard photolabelling conditions for 30 minutes at 25° C. in the absence of UV light. The mixture was then extracted with 1 ml chloroform and analyzed for radioactive materials in the organic extract by silica gel thin layer chromatography using Solvent I.
This was confirmed by incubating ^3 H-NABV with brain homogenates in the dark for 30-60 minutes at 0°, 25°, and 37° C., subsequently extracting the mixtures with chloroform, and analyzing for radioactive metabolites by silica gel thin layer chromatography and high pressure liquid chromatography. A single radioactive spot corresponded to the Rf of NABV and accounted for more than 98% of the recovered radioactivity.

[9] = 0.44 micromoles ^3 H-NABV, competitor 1-22 micromoles
[10] = corrected for nonspecific labelling, apparent, not a true equilibrium constant, read-out: half maximal saturation photolabelling
[11] = saturation photolabelling experiments

## COc1cccc2c1C(=O)c1c(O)c3c(c(O)c1C2=O)C[C@@](O)(C(C)=O)C[C@@H]3O[C@H]1C[C@H](N)[C@H](O)[C@H](C)O1 [daunorubicin]
[1]; [9]
  effect of increasing concentrations of competitor on photolabelling: negligible effects
21.5 kDa polypeptide; [9]
  effect of increasing concentrations of competitor on photolabelling: negligible effects

## Nc1ccc(C(=O)O)cc1 [p-aminobenzoic acid]
[1]; 100-fold excess over [^3 H]-NABV
  reduction of photolabelling by nitrene scavenger: 25%
[1]; up to 10^4 -fold molar excess
  further reduction of photolabelling by nitrene scavenger: no significant further reduction
21.5 kDa polypeptide; 10^3 -fold molar excess
  effect of nitrene scavenger on photolabelling: no significant effect
21.5 kDa polypeptide; 10^4 -fold molar excess
  reduction of photolabelling by nitrene scavenger: 30%

## CC[C@]1(O)C[C@@H]2CN(CCc3c([nH]c4ccccc34)[C@@](C(=O)OC)(c3cc4c(cc3OC)N(C)[C@H]3[C@@](O)(C(=O)OC)[C@H](OC(C)=O)[C@]5(CC)C=CCN6CC[C@]43[C@@H]65)C2)C1 [vinblastine]
[2]; sucrose density gradient purified plasma membranes, 10 micromole vinblastine
  reduction of radiolabelling of the 150-180 kDa component: 59%
[2]; whole cell particulate fractions, DC-3F/VCRd-5L, 10 micromoles vinblastine
  radiolabelling of the 150-180 kDa component in the presence of vinblastine: substantially reduced
[3]; drug-resistant variants, ^125 I-NASV, 10 micromoles vinblastine
  reduction of radiolabelling of the 150-180 kDa component: 80-90%
[3]; parental and revertant cells, ^125 I-NASV, 10 micromoles vinblastine
  radiolabelling of the 150-180 kDa component in the presence of vinblastine: completely absent
[4]
  reduction of radiolabel in the immunoprecipitate: 96%
[5]
  IC50: 0.6 nM
microtubule
  effect on in vitro microtubule assembly: inhibit in vitro microtubule assembly
Tubulin [6]
  effect on tubulin aggregation: induce tubulin aggregation
Tubulin [7]
  effect on tubulin-dependent GTP hydrolysis: inhibit tubulin-dependent GTP hydrolysis

## N-(p-azido-[3,4-^3 H]benzoyl)-N'-beta-aminoethylvindesine [^3 H-NABV]
[1]
  maximum saturable incorporation: 5.5 pmol ^3 H-NABV bound/mg of calf brain homogenate protein
[1]; [10]
  Kd: 208 nM
[1]; [11]
  percent of total labelling ascribed to nonspecific labelling: 48%
21.5 kDa polypeptide
  maximum saturable incorporation: 0.9 pmol ^3 H-NABV bound/mg of calf brain homogenate protein
21.5 kDa polypeptide; [10]
  Kd: 95 nM
21.5 kDa polypeptide; [11]
  percent of total labelling ascribed to nonspecific labelling: 51%
[8]
  metabolism under standard photolabelling conditions: no appreciable metabolism
[8]; TLC and HPLC
  recovered radioactivity in the single spot corresponding to the Rf of NABV: more than 98%

## N-(p-azido-3-[^125 I-]-salicyl-N'-beta-aminoethylvindesine [^125 I-NASV]
[3]; DC-3F/ADX-U revertant cells
  increase of radiolabelling of the 150-180 kDa component versus drug-sensitive parental cells: about 15 fold
[3]; drug-resistant variants (DC-3F/VCRd-5L, DC-3F/ADX)
  increase of radiolabelling of the 150-180 kDa component versus drug-sensitive parental cells: up to 150 fold
